Experiment [1] has as its target T1, Induced myeloid leukemia cell differentiation protein Mcl-1 (Homo sapiens, UniProt Q07820).
Experiment [2] addresses T1, Induced myeloid leukemia cell differentiation protein Mcl-1. The source holds these as a separate data set.
Experiment [3] has the same target. The source holds these as a separate data set.
Experiment [4] shares this target. This is another data set of the same source.
The target of another experiment is Bcl-2-like protein 1 (Homo sapiens, UniProt Q07817).

The results in this text go back to ChEMBL document CHEMBL3785006, “Discovery of 2-Indole-acylsulfonamide Myeloid Cell Leukemia 1 (Mcl-1) Inhibitors Using Fragment-Based Methods” (J Med Chem, 2016).

Sequence of Bcl-2-like protein 1 (Q07817 whole entry): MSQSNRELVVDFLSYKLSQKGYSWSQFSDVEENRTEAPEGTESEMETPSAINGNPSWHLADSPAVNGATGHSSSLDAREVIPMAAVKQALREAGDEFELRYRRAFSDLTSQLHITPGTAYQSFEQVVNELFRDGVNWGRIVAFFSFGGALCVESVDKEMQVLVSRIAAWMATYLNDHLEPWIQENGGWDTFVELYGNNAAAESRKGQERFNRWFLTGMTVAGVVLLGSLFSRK
T1 sequence (Q07820 whole entry): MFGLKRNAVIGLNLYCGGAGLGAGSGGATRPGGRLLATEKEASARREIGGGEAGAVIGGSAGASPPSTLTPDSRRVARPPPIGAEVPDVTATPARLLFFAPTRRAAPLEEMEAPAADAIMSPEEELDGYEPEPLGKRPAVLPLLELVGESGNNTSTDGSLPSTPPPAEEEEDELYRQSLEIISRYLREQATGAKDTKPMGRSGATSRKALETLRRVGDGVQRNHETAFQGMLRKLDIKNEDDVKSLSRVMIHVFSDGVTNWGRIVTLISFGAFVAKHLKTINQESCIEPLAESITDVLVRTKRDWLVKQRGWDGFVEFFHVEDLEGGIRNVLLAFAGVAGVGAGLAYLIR

`Oc1ccccc1-c1cc(C(F)(F)C(F)(F)F)[nH]n1` displayed an equilibrium dissociation constant (Kd) in experiment [1] of 1500 µM.
With `Cc1cc(OCCCc2c(C(=O)NS(=O)(=O)c3ccc(C(=O)NCc4ccccc4)o3)[nH]c3c(-c4c(C)nn(C)c4C)c(Cl)ccc23)cc(C)c1Cl`, the inhibitory constant (Ki) in experiment [2] was under 0.01 µM; in experiment [3], 0.084 µM; in experiment [4], 0.0024 µM; at Bcl-2-like protein 1, over 50 µM.
Take `Cc1cc(OCCCc2c(C(=O)NS(=O)(=O)c3cccc(CNC(=O)CC(C)C)c3)[nH]c3c(-c4c(C)nn(C)c4C)c(Cl)ccc23)cc(C)c1Cl`: the Ki in experiment [2] was under 0.01 µM; in experiment [3], 0.092 µM; in experiment [4], 0.0056 µM; at Bcl-2-like protein 1, 1.57 µM.
`Cc1cc(OCCCc2c(C(=O)NS(=O)(=O)c3cccc(CNC(=O)C(C)C)c3)[nH]c3c(-c4c(C)nn(C)c4C)c(Cl)ccc23)cc(C)c1Cl`: the inhibition constant Ki in experiment [2] is under 0.01 µM; in experiment [3] it was 0.054 µM; in experiment [4], 0.016 µM; at Bcl-2-like protein 1 it was over 50 µM.
For `Cc1cc(OCCCc2c(C(=O)NS(=O)(=O)c3cccc(CNC(=O)c4cccn4C)c3)[nH]c3c(-c4c(C)nn(C)c4C)c(Cl)ccc23)cc(C)c1Cl`, in that order: under 0.01 µM, 0.091 µM, 0.01 µM and over 50 µM.
The like results for `Cc1cc(OCCCc2c(C(=O)NS(=O)(=O)c3cccc(CNC(=O)c4cccc(C(F)(F)F)c4)c3)[nH]c3c(-c4c(C)nn(C)c4C)c(Cl)ccc23)cc(C)c1Cl` were, in that order, under 0.01 µM, 0.078 µM, 0.007 µM and 12.9 µM.

Broadly, the Kd is the equilibrium constant for the complex coming apart. A lower Kd goes with a tighter complex. For orientation: Ki means a dissociation constant, usually derived from enzyme kinetics or from competition with a known ligand. Read a high Ki as lower affinity.
